{
  "source": "paper PMC2810227",
  "about": "“3-O-Methylfunicone, a Selective Inhibitor of Mammalian Y-Family DNA Polymerases from an Australian Sea Salt Fungal Strain” (Marine Drugs, 2009)",
  "key": {"[1]": {"target": "T1, human pol γ (Homo sapiens, UniProt P54098)", "T1 construct": "His; made in house", "T1 sequence (P54098 whole entry)": "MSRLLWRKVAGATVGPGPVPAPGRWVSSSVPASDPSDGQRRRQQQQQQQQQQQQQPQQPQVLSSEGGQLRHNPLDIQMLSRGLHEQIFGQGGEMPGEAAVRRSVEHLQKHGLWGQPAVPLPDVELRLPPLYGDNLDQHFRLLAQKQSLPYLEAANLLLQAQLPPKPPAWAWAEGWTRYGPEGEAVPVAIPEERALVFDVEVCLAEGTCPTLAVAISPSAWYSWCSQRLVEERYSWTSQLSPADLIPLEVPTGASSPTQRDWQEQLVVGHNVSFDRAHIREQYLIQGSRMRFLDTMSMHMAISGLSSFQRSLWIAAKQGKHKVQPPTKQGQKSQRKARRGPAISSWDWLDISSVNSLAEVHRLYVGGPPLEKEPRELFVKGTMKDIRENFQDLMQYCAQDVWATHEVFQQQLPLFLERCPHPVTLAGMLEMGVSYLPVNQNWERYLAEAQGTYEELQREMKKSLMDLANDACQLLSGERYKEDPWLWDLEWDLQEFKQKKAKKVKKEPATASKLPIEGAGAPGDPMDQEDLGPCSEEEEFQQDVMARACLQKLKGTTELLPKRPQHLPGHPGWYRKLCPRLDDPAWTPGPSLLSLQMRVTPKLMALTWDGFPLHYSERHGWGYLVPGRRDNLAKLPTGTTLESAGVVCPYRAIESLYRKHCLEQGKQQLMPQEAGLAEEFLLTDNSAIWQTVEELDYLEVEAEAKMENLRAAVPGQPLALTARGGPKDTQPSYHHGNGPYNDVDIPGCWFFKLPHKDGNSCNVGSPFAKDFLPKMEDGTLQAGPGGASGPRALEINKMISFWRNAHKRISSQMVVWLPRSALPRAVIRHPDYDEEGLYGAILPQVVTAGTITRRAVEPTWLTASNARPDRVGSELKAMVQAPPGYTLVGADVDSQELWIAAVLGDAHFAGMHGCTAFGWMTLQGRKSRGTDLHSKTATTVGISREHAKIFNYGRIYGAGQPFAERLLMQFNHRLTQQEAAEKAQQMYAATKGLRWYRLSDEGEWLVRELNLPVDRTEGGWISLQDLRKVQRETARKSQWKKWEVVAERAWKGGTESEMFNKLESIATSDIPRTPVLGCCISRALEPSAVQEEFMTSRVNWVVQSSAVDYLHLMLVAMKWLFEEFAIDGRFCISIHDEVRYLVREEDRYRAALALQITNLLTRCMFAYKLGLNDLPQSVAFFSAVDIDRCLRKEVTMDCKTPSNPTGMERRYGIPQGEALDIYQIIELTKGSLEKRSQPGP", "assay": "DNA polymerase assay, pol γ", "format": "biochemical", "settings": "100 μM", "excerpt": "(§1) Pol α was purified from calf thymus by immuno-affinity column chromatography, as described by Tamai et al.. Recombinant rat pol β was purified from E. coli JMpβ5, as described by Date et al.. The human pol γ catalytic gene was cloned into pFastBac. Histidine-tagged enzyme was expressed using the BAC-TO-BAC HT Baculovirus Expression System according to the supplier’s manual (Life Technologies, MD, USA) and purified using ProBoundresin (Invitrogen Japan, Tokyo, Japan). Human pols δ and ɛ were purified by nuclear fractionation of human peripheral blood cancer cells (Molt-4) using the second subunit of pols δ and ɛ-conjugated affinity column chromatography, respectively. A truncated form of human pol η (residues 1–511) tagged with His6 at its C-terminal was expressed in E. coli cells and purified as described by Kusumoto et al.. A recombinant mouse pol ι tagged with His6 at its C-terminal was expressed and purified by Ni-NTA column chromatography as described elsewhere (Masutani et al., in preparation). […]\n(§2) The compounds were dissolved in distilled dimethyl sulfoxide (DMSO) at various concentrations and sonicated for 30 sec. […] Activity without the inhibitor was considered 100%, and the remaining activity at each concentration of the inhibitor was determined relative to this value. […]"}, "[2]": {"tested_on": "HCT116 (colon carcinoma cells)", "assay": "Cancer cell growth, MTT assay, HCT116", "format": "cell-based, human", "procedure": "Figure 5. (A) Human cancer cell growth inhibition dose-response curves of 3-O-methyl-funicone (1). Various concentrations (0 to 150 μM) of compound 1 were incubated with human colon carcinoma (HCT116) cells (circle) and human cervix carcinoma (HeLa) cells (square) for 24 h. Rate of cell growth was determined by MTT assay as described in the Experimental section. Data are shown as the means ± SEM of five independent experiments. (B) Clonogenic survival of UV-treated HeLa cells by compound 1. Various concentrations (0 to 100 μM) of compound 1 were incubated with 10 J/m^2 UV-treated (closed circle) or untreated (open circle) HeLa cells. After 7 days, the number of colonies in each treatment group was counted. Values are the means ± SEM of two independent experiments.\nHuman colon carcinoma cell line, HCT116, was a kind gift from Dr. Bert Vogelstein (Johns Hopkins University, Baltimore, […], USA). Human cervix carcinoma cell line, HeLa, was obtained from Health Science Research Resources Bank (Osaka, Japan). The cells were maintained in McCoy’s 5A medium supplemented with 10% FBS, sodium bicarbonate (2 g/L) and streptomycin (100 μg/mL). The cells were cultured at 37 °C in standard medium in a humidified atmosphere of 5% CO2-95% air. […] After incubation for 24 h, the survival rate was determined by MTT (3-(4,5-dimethylthiazol-2-yl)-2,5-diphenyl tetrazolium bromide) assay."}, "[3]": {"target": "T2, human pol λ (Homo sapiens, UniProt Q9UGP5)", "T2 construct": "His; made in house", "T2 sequence (Q9UGP5 whole entry)": "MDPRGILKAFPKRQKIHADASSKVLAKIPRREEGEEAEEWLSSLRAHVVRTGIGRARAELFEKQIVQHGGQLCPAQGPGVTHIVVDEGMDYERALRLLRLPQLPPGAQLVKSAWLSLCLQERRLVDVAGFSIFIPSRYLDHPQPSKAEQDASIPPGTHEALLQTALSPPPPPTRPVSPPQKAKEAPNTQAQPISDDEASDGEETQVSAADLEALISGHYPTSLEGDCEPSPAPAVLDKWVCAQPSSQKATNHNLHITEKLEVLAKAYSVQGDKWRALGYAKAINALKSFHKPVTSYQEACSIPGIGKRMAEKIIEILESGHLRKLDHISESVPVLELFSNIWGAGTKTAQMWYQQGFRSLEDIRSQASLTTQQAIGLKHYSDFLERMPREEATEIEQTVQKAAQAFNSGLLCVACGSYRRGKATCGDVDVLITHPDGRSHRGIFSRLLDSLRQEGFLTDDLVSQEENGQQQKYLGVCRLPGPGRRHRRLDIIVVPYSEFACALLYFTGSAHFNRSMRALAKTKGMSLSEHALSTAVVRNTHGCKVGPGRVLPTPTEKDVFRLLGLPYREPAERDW", "assay": "DNA polymerase assay, pol λ", "format": "biochemical", "settings": "100 μM", "excerpt": "as §1, §2"}, "[4]": {"target": "T3, human pol η (Homo sapiens, UniProt Q9Y253)", "T3 construct": "A truncated form of human pol η (residues 1–511); His6 (C); made in house; host or cells: E. coli", "T3 sequence (Q9Y253 1-511)": "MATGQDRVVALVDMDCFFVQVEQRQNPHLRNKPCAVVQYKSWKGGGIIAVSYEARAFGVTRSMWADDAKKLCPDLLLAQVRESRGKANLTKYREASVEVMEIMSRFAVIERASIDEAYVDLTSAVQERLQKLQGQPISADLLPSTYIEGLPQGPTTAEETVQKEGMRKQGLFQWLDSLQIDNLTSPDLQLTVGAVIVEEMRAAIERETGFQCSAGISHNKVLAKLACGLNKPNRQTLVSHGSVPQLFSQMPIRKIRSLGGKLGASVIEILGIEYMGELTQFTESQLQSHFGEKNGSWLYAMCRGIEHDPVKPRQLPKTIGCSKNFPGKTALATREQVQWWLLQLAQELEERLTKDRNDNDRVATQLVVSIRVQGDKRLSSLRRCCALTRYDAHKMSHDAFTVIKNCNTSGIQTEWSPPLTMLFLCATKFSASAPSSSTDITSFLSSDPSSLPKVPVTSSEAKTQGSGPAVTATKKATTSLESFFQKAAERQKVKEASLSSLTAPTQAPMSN", "assay": "DNA polymerase assay, pol η", "format": "biochemical", "excerpt": "as §1, §2"}, "[5]": {"target": "T4, human topoisomerase I (Homo sapiens, UniProt P11387)", "T4 construct": "Purified human placenta DNA topoisomerases I and II were purchased from TopoGen, Inc; purchased TopoGen, Inc. (Columbus, OH, USA); host or cells: human placenta (tissue-purified)", "T4 sequence (P11387 whole entry)": "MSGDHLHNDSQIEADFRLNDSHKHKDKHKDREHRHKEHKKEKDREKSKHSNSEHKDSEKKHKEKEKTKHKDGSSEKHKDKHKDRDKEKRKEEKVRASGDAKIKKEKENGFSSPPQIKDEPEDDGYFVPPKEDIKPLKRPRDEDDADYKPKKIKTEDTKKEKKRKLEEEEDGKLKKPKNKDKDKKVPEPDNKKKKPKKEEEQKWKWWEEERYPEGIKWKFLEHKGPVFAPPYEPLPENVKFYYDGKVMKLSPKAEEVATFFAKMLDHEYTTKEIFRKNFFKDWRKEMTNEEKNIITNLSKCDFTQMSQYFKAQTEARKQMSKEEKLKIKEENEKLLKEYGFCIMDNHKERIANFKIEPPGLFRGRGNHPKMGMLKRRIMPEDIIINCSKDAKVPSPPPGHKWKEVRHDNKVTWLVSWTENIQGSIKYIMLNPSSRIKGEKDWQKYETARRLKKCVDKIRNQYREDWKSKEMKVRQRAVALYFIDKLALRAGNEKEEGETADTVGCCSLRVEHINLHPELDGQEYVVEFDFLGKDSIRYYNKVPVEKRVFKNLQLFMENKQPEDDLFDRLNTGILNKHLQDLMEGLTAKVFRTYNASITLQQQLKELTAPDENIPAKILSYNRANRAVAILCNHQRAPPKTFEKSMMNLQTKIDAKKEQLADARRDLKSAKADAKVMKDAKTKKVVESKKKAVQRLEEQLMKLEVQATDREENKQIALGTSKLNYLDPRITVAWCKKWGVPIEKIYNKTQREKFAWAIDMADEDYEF", "assay": "DNA topoisomerase I assay", "format": "biochemical", "settings": "100 μM", "excerpt": "as §1, with “al..” for “al.. A recombinant mouse pol ι tagged with His6 at its C-terminal was expressed and purified by Ni-NTA column chromatography as described elsewhere (Masutani et al., in preparation).”\nThe activities of calf primase of pol α, human telomerase, T7 RNA polymerase, mouse IMP dehydrogenase, human DNA topoisomerases I and II, T4 polynucleotide kinase and bovine DNase I were measured in standard assays according to the manufacturer’s specifications, as described by Tamiya-Koizumi et al., Oda et al., Nakayama et al., Mizushina et al., Ishimaru et al., Soltis et al. and Lu et al., respectively."}, "[6]": {"target": "T5, calf thymus TdT (Bos taurus, UniProt P06526)", "T5 construct": "purchased Stratagene Cloning Systems (La Jolla, CA, USA)", "T5 sequence (P06526 whole entry)": "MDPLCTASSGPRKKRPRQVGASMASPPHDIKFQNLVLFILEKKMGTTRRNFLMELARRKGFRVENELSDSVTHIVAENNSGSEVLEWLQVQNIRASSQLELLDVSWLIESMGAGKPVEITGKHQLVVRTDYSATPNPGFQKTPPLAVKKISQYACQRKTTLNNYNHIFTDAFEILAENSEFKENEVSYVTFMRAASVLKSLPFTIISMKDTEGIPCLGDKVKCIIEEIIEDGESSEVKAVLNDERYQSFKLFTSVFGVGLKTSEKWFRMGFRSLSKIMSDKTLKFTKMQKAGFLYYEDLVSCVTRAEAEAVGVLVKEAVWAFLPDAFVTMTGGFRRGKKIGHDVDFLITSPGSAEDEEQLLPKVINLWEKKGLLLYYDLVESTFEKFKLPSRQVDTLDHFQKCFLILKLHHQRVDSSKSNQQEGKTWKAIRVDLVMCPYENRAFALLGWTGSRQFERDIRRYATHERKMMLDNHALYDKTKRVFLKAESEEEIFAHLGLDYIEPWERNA", "assay": "DNA polymerase assay, TdT", "format": "biochemical", "settings": "100 μM", "excerpt": "as §1, §2"}},
  "data": [
    {"smiles": "C/C=C/c1occ(C(=O)c2c(OC)cc(OC)cc2C(=O)OC)c(=O)c1OC", "note": "[compound 1, 3-O-methylfunicone]", "values": [
      {"measurement": "effect on pol γ activity", "setting": "[1]", "result": "hardly influenced"},
      {"measurement": "LD50, cell growth", "setting": "[2]; HCT116, 24 h, MTT assay", "result": 63.8, "unit": "µM"},
      {"measurement": "cell growth inhibition dose relative to the enzyme inhibitory concentration", "setting": "[2]; LD50 (HCT116 and HeLa) versus IC50 for Y-family pols", "result": "1.3 to 5.1", "unit": "fold"},
      {"measurement": "effect on pol λ activity", "setting": "[3]", "result": "hardly influenced"},
      {"measurement": "effect on pol η activity", "setting": "[4]; 100 μM", "result": "selectively inhibit"},
      {"measurement": "IC50", "setting": "[4]; poly(dA)/oligo(dT)18 and dTTP, 0.05 units enzyme, read-out: 50% inhibition of pol η (IC50)", "result": 50.1, "unit": "µM"},
      {"measurement": "effect on human topoisomerase I activity", "setting": "[5]", "result": "did not influence"},
      {"measurement": "effect on TdT activity", "setting": "[6]", "result": "hardly influenced"}
    ]}
  ]
}
